Results published in patent US9951226B2, “Compound based on cyanine scaffold for diagnosis sepsis by selectively detect glutathione” (EWHA UNIVERSITY—INDUSTRY COLLABORATION FOUNDATION, priority 2014, dated 2018).

Legend:
HeLa cells = test: Detection of intracellular biothiol in HeLa cells, confocal laser scanning microscope; format: cell-based, human; conditions: 10 μM compound
Method: HeLa cells (human adenocarcinoma cells, Korea Cell Line Bank) were cultured in RPMI 1640 (Roswell Park Memorial Institute) supplemented with 10% heat-inactivated fetal bovine serum (FBS), 100 U/mL penicillin, and 100 U/mL streptomycin in a 37° C. 5% CO2 incubator. The cells were either treated or not treated with 1 mM of N-methylmaleimide (NMM) known as a thiol blocker for 20 minutes. 100 μM of each amino acid containing thiol group (R—SH) such as cysteine, homocysteine, and glutathione was added thereto. Then, the cells were seeded in 35-mm glass bottomed dishes at the density of 3×10^5 cells/dish in 1640 medium. 24 hours later, 10 μM of the compound prepared in Example 1 was added thereto, followed by culture at 37° C. for 20 minutes. The cells were washed with DPBS (Dulbecco's Phosphate Buffered Saline) twice to eliminate the remaining compound, followed by imaging with confocal laser scanning microscope (Fluoview 1200, Olympus, Japan). At this time, the emitting filter with the excitation wavelength of 635 nm and the band-path (BP) of 655˜755 nm was used.

[1] = Detection of biothiol: absorption and fluorescence spectrum with endogenous amino acids in HEPES buffer; format: biochemical; conditions: 10 μM compound; for absorption strength at 750 nm: HEPES pH 7.4, 10% DMSO, 25° C.; for fluorescence strength at 736 nm: λex=730 nm
Method: 10 μM of the compound prepared in Example 1 and 100 μM of each endogenous amino acid (glutathione, cysteine, homocysteine, dithiothreitol, phenylalanine, histidine, glutamine, lysine, glutamate, glycine, serine, alanine, arginine, methionine, tyrosine) were added to HEPES (4-(2-hydroxyethyl)piperazine-1-ethanesulfonic acid) buffer (10 mM, pH=7.4) containing 10% dimethylsulfoxide (DMSO), followed by observation of absorption spectrum presented through UV-vis sepctra (Scinco 3000 spectrophotometer, 1 cm quartz cell) at 25° C.
(§1) The following experiment was performed by the same manner as described in Experimental Example <1-1> except that fluorescence spectrum was observed by using RF-5310/PC fluorescence spectrometer (Shimada, 1 cm quartz cell) instead of observing absorption spectrum via UV-vis sepctra (Scinco 3000 spectrophotometer, 1 cm quartz cell) (λex=730 nm, λem=736 nm, slit:10/10 nm).

[2] = Glutathione selectivity: absorption/fluorescence spectrum with various amino acids in HEPES buffer; format: biochemical
Method: 10 μM of the compound prepared in Example 2 was treated to HEPES (4-(2-hydroxyethyl)piperazine-1-ethanesulfonic acid) buffer (10 mM, pH=7.4) containing 10% DMSO and 100 μM of each glutathione, cysteine, homocysteine, dithiothreitol, phenylalanine, histidine, glutamine, lysine, glutamate, glycine, serine, alanine, arginine, methionine, and tyrosine, followed by observation of fluorescence spectrum at 25° C. by using RF-5310/PC fluorescence spectrometer (Shimada, 1 cm quartz cell).
An experiment was performed by the same manner as described in Experimental Example 3 except that the fragment 1 or the fragment 2 was used instead of the compound prepared in Example 2. […] To disclose the reason in relation to the above, the 3-dimensional structure of each of the compound of Example 1, the compound of Example 2, and the fragment 1 or the fragment 2, was investigated along with band-gap.
10 μM of the compound prepared in Example 3 and 100 μM of each endogenous amino acid (alanine, arginine, cysteine, glutamate, glycine, glutathione, homocysteine, histidine, lysine, methionine, serine, and tyrosine) were added to HEPES (4-(2-hydroxyethyl)piperazine-1-ethanesulfonic acid) buffer (10 mM, pH=7.4) containing 10% dimethylsulfoxide (DMSO), followed by observation of absorption spectrum presented through UV-vis sepctra (Scinco 3000 spectrophotometer, 1 cm quartz cell) at 25° C.
as §1, with “<15-1>” for “<1-1>”

[3] = Absorption and fluorescence spectrum according to the concentration of glutathione; format: biochemical; conditions: for absorption signal at 830 nm / fluorescence signal at 780 nm: 10 μM compound
Method: (§2) 10 μM of the compound prepared in Example 2 and glutathione were added to HEPES (4-(2-hydroxyethyl)piperazine-1-ethanesulfonic acid) buffer (10 mM, pH=7.4) containing 10% dimethylsulfoxide (DMSO) with raising slowly the concentration of glutathione from 0 to 50 μM, during which the changes of absorption spectrum were observed using UV-vis sepctra (Scinco 3000 spectrophotometer, 1 cm quartz cell) at 25° C.
as §1, with “<4-1>” for “<1-1>”
as §2, with “Example 3” for “Example 2”, “to 100” for “to 50”
as §1, with “<16-1>” for “<1-1>”

[4] = 100 μM amino acids containing thiol group (glutathione, cysteine, homocysteine, dithiothreitol)
[5] = 100 μM other amino acids not-containing thiol group
[6] = 10 μM compound, 100 μM other amino acids except glutathione
[7] = glutathione raised from 0 to 100 μM

CCCN1/C(=C/C=C2\CCCC(/C=C/C3=[N+](CCC)c4ccccc4C3(C)C)=C2N2CCN(S(=O)(=O)c3ccc([N+](=O)[O-])cc3[N+](=O)[O-])CC2)C(C)(C)c2ccccc21.[I-] [Example 1, 2-((E)-2-((E)-3-((E)-2-(3,3-dimethyl-1-propylindolium-2-ylidene)ethylidene)-2-(4-(2,4-dinitrophenylsulfonyl)piperazine-1-yl)cyclohex-1-enyl)binyl)-3,3-dimethyl-1-propyl-3H-indolium iodide]
red fluorescence under confocal laser scanning microscope (HeLa cells; HeLa cells pre-treated with NMM, 100 μM cysteine added): strong red fluorescence was observed
red fluorescence under confocal laser scanning microscope (HeLa cells; HeLa cells pre-treated with NMM, 100 μM glutathione added): strong red fluorescence was observed
red fluorescence under confocal laser scanning microscope (HeLa cells; HeLa cells pre-treated with NMM, 100 μM homocysteine added): strong red fluorescence was observed
red fluorescence under confocal laser scanning microscope (HeLa cells; HeLa cells pre-treated with thiol blocker NMM 1 mM): red fluorescence was not observed
red fluorescence under confocal laser scanning microscope (HeLa cells; HeLa cells, 20 minutes): strong red fluorescence was detected
absorption strength at 750 nm [1, 4]: strong absorption strength
fluorescence strength at 736 nm [1, 4]: strong fluorescence strength
absorption strength at 750 nm [1, 5]: weak absorption strength
fluorescence strength at 736 nm [1, 5]: weak fluorescence strength

CCCCN1C(=O)c2cccc3c(S(=O)(=O)N4CCN(C5=C(/C=C/C6=[N+](CCC)c7ccccc7C6(C)C)CCC/C5=C\C=C5\N(CCC)c6ccccc6C5(C)C)CC4)ccc(c23)C1=O.[I-] [Example 3, 2-((E)-2-((E)-2-(4-((2-butyl-1,3-dioxo-2,3-dihydro-1H-benzeneisoquinoline-6-yl)sulfonyl)piperazine-1-yl)-3-((E)-2-(3,3-dimethyl-1-propylindolin-2-ylidene)ethylidene)cyclohex-1-en-1-yl)binyl)-3,3-dimethyl-1-propyl-3H-indolium iodide]
fluorescence signal near 780 nm ([2]; 10 μM compound, 100 μM glutathione): strong fluorescence signal
absorption signal near 830 nm ([2]; 10 μM compound, 100 μM glutathione, HEPES pH 7.4, 10% DMSO, 25° C.): weak absorption signal
absorption signal at 830 nm [2, 6]: strong absorption signal
fluorescence signal at 780 nm [2, 6]: weak fluorescence signal
absorption signal at 830 nm ([3]; glutathione not added): strong absorption signal
fluorescence signal at 780 nm ([3]; glutathione not added): weak fluorescence signal
absorption signal at 830 nm [3, 7]: getting weaker
fluorescence signal at 780 nm [3, 7]: getting stronger
dependence of the reaction on glutathione concentration ([3]; conclusion from absorption and fluorescence spectra): dose-dependently

CCCN1/C(=C/C=C2\CCCC(/C=C/C3=[N+](CCC)c4ccccc4C3(C)C)=C2N2CCNCC2)C(C)(C)c2ccccc21 [fragment 2, 2-((E)-2-((E)-3-((E)-2-(3,3-dimethyl-1-propylindolin-2-ylidene)ethylidene)-2-(piperazine-1-yl)cyclohex-1-enyl)binyl)-3,3-dimethyl-1-propyl-3H-indolium iodide]
changes in absorption or fluorescence spectrum (capacity of detecting glutathione) ([2]; same manner as Experimental Example 3, fragment instead of Example 2): no changes in absorption or fluorescence spectrum were detected
